According to patent US6255273A, “Hydrofluoropolyether-based azeotropic or near azeotropic compositions” (Ausimont S.p.A., priority 1998, dated 2001):

Assays:
[1] = oily product removal from molded circuits, oil (2); conditions: 23° C.; methyl alcohol mixture 51° C., tDCE mixture 25° C., acetone mixture 66° C.; 5 min dipping
Protocol: (§1) The oily product removal capacity from molded circuits has been verified according to the following method: a known amount of an oily product is uniformly spread on the molded circuit surface having 35×19 mm sizes; 0.100 g of oil are spread on a single surface of the circuit, then the article is dipped in the solution to be tested.
(§2) After 5 minutes of dipping, the circuit is allowed to drie for further 5 minutes at room temperature so as to remove the solvent traces and then it is weighed again on an analytical balance.
(§3) The following oily products have been used:
(§4) Tests are carried out at room temperature (23-250° C.) and tests at the boiling temperature of the solvent mixtures. In the latter case the solvent is placed in a vessel equipped with a refrigerant under reflux which recovers the vapour of the boiling solution.
(§5) In all the tests 30 ml of solvent solution have been used.

[2] = Kauri-butanol index, modified ASTM D1133-86; type: physicochemical
Protocol: The solvent effect of the HFPE-based mixtures is evaluated by determination of the Kauri-butanol index, reported in Table 19, according to ASTM […]-86 method. […] The Kauri-butanol solution is stirred by a magnetic stirrer. The end titration point is identified in connection with a diffused turbidity which appears in the Kauri-butanol solution due to the resin separation.

[3] = oily product removal from molded circuits, oil (3); conditions: 23° C.; methyl alcohol mixture 51° C., tDCE mixture 25° C., acetone mixture 66° C.; 5 min dipping
Protocol: as §1, §2, §3
3) Ester-Icematic SW 100 oil by CASTROL
as §4, §5

[4] = oily product removal from molded circuits, oil (1); conditions: 23° C.; methyl alcohol mixture 51° C., tDCE mixture 25° C., acetone mixture 66° C.; 5 min dipping
Protocol: as §1, §2, §3
1) Alkyl Benzene-Zerice S 46 oil by ESSO
as §4, §5

[5] = Hydrofluoropolyether chemical-physical characteristics (Table 1); type: physicochemical; conditions: for BOILING TEMPERATURE / Evaporation latent heat: at 1.013 bar; for Isotherm evaporation speed / Surface pressure: at 20° C.; for Liquid density: at 25° C.; for Flammability in air: in air (% volume)
[6] = oily product removal from molded circuits, oil (4); conditions: 23° C.; methyl alcohol mixture 51° C., tDCE mixture 25° C., acetone mixture 66° C.; 5 min dipping
Protocol: as §1, §2, §3
4) Mineral-Clavus 32 oil by SHELL.
as §4, §5

[7] = water removal from glass surfaces; conditions: with 600 ppm by weight surfactant; CFC 113 42° C., HCFC123 mixture 23° C., tDCE mixture 35° C.
Protocol: In a cylindrical container having a 46 cm diameter and a 56 cm height, equipped with a neoprene closing stopper (cover), 30 ml of the solution to be tested are introduced.
The compositions, indicated in Table 22, used for the water removal tests are prepared in a 50 ml flask and are heated in a thermostatic bath at a temperature of about 5° C. lower than the boiling temperature of the solution itself.
After heating the solution is transferred in the test container equipped with cover.
On a glass surface having 37×25×1 mm sizes, 0.015 g of water are deposited in the form of small drops.
The glass is placed on a metal frame which is used to carry out the article dipping in the liquid phase of the solution to be tested.
The container for the test is opened and the frame is slowly dipped into the solution; the frame upper part runs in a hole made in the rubber cover (cap) which closes the container.
When two minutes have elapsed, the frame is lifted from the liquid phase, by letting run the external end part through the hole present in the cover (cap); the glass will remain exposed to the solution vapours for one minute, then it is removed from the container and weighed.

[8] = background; cited from earlier work
rats [9] = assay: Acute toxicity in rats by inhalation; type: in vivo; conditions: 4 hours
[10] = evaluation of the boiling temperature at the pressure of 1.013 bar (binary mixtures); type: physicochemical
rats [11] = assay: Acute toxicity in rats per os; type: in vivo; set-up: unit not given here
[12] = Table 2, HCF2 OCF2 OCF2 H/HCFC 123, number in label = % by wt. HCF2 OCF2 OCF2 H
[13] = Table 7, HCF2 OCF2 OCF2 H/HFC 356 ffa, number in label = % by wt. HCF2 OCF2 OCF2 H
[14] = Table 6, HCF2 OCF2 OCF2 H/HFC 365 mfc, number in label = % by wt. HCF2 OCF2 OCF2 H
[15] = Table 5, HCF2 OCF2 OCF2 H/acetone, number in label = % by wt. HCF2 OCF2 OCF2 H
[16] = Table 8, HCF2 OCF2 OCF2 H/metoxymethyl methyl ether, number in label = % by wt. HCF2 OCF2 OCF2 H
[17] = Table 10, HCF2 OCF2 OCF2 H/tDCE, number in label = % by wt. HCF2 OCF2 OCF2 H
[18] = Table 12, HCF2 OCF2 CF2 OCF2 H/acetone, number in label = % by wt. HCF2 OCF2 CF2 OCF2 H
[19] = Table 13, HCF2 OCF2 CF2 OCF2 H/methyl alcohol, number in label = % by wt. HCF2 OCF2 CF2 OCF2 H
[20] = Table 15, HCF2 OCF2 CF2 OCF2 H/tDCE, number in label = % by wt. HCF2 OCF2 CF2 OCF2 H
[21] = Table 16, HCF2 OCF2 CF2 OCF2 H/ethyl alcohol, number in label = % by wt. HCF2 OCF2 CF2 OCF2 H

## FC(F)(Cl)C(F)(Cl)Cl [CFC 113, 1,1,2-trichloro-1,2,2-trifluoroethane]
[1]
  Percentage of removed oil, oil (2) FluoroSilicone-FS 1265: 99.5 % by weight
[2]
  Kauri-butanol index: 31
[3]
  Percentage of removed oil, oil (3) Ester-Icematic SW 100: 100 % by weight
[4]
  Percentage of removed oil, oil (1) Alkyl Benzene-Zerice S 46: 100 % by weight
[5]
  BOILING TEMPERATURE: 47.55 °C
  Evaporation latent heat: 144 kJ/kg
  Isotherm evaporation speed: 1 mg/min
  Surface pressure: 18.1 dynes/cm
  Liquid density: 1.56 g/mL
  Flammability in air: non
[6]
  Percentage of removed oil, oil (4) Mineral-Clavus 32: 100 % by weight
[7]
  removed water: 100 % by weight
[8]
  flammability: non flammable
  stability: stable
  toxicity: non toxic
Rats [9]
  Acute toxicity in rats by inhalation, LC50: 50000 ppmv/4 hours

## FC(F)(F)C(Cl)Cl [HCFC 123, 1,1-dichloro-2,2,2-trifluoroethane, reference compound]
[10]; [12]
  BOILING TEMPERATURE: 27.54 °C

## CC(F)(Cl)Cl [HCFC 141b]
[8]
  flammability: moderately flammable

## FC(F)(F)CCC(F)(F)F [HFC 356 ffa, 1,1,1,4,4,4-hexafluorobutane, reference compound]
[10]; [13]
  BOILING TEMPERATURE: 24.71 °C

## CC(F)(F)CC(F)(F)F [HFC 365 mfc, 1,1,1,3,3-pentafluorobutane, reference compound]
[10]; [14]
  BOILING TEMPERATURE: 40.09 °C

## FC(F)OC(F)(F)OC(F)F [HFPE1, difluoromethoxy-bis(difluoromethyl ether)]
[5]
  BOILING TEMPERATURE: 35.39 °C
  Evaporation latent heat: 165 kJ/kg
  Isotherm evaporation speed: 1.5 mg/min
  Surface pressure: 14.0 dynes/cm
  Liquid density: 1.54 g/mL
  Flammability in air: non flammable
Rats [11]
  Acute toxicity in rats per os, LD50: > 5000
[10]; [12]
  BOILING TEMPERATURE: 35.39 °C
[10]; Table 3, HCF2 OCF2 OCF2 H/n-pentane, number in label = % by weight HCF2 OCF2 OCF2 H
  BOILING TEMPERATURE: 35.39 °C
[10]; Table 4, HCF2 OCF2 OCF2 H/iso-pentane, number in label = % by wt. HCF2 OCF2 OCF2 H
  BOILING TEMPERATURE: 35.39 °C
[10]; [15]
  BOILING TEMPERATURE: 35.39 °C
[10]; [14]
  BOILING TEMPERATURE: 35.39 °C
[10]; [13]
  BOILING TEMPERATURE: 35.39 °C
[10]; [16]
  BOILING TEMPERATURE: 35.39 °C
[10]; Table 9, HCF2 OCF2 OCF2 H/n-hexane, number in label = % by wt. HCF2 OCF2 OCF2 H
  BOILING TEMPERATURE: 35.39 °C
[10]; [17]
  BOILING TEMPERATURE: 35.39 °C
Rats [9]
  Acute toxicity in rats by inhalation, LC50: > 32000 ppmv/4 hours

## FC(F)OC(F)(F)C(F)(F)OC(F)F [HFPE2, 1-difluoromethoxy-1,1,2,2-tetrafluoroethyl difluoromethyl ether]
[5]
  BOILING TEMPERATURE: 58.21 °C
  Evaporation latent heat: 139 kJ/kg
  Isotherm evaporation speed: 0.6 mg/min
  Surface pressure: 15.5 dynes/cm
  Liquid density: 1.60 g/mL
  Flammability in air: non flammable
Rats [11]
  Acute toxicity in rats per os, LD50: > 5000
[10]; Table 11, HCF2 OCF2 CF2 OCF2 H/n-pentane, number in label = % by wt. HCF2 OCF2 CF2 OCF2 H
  BOILING TEMPERATURE: 58.21 °C
[10]; [18]
  BOILING TEMPERATURE: 58.21 °C
[10]; [19]
  BOILING TEMPERATURE: 58.21 °C
[10]; Table 14, HCF2 OCF2 CF2 OCF2 H/n-hexane, number in label = % by wt. HCF2 OCF2 CF2 OCF2 H
  BOILING TEMPERATURE: 58.21 °C
[10]; [20]
  BOILING TEMPERATURE: 58.21 °C
[10]; [21]
  BOILING TEMPERATURE: 58.21 °C
Rats [9]
  Acute toxicity in rats by inhalation, LC50: > 32000 ppmv/4 hours

## CC(C)=O [acetone, dimethyl ketone, reference compound]
[10]; [15]
  BOILING TEMPERATURE: 56.50 °C
[10]; [18]
  BOILING TEMPERATURE: 56.50 °C

## CCO [ethyl alcohol, reference compound]
[10]; [21]
  BOILING TEMPERATURE: 78.50 °C

## CO [methyl alcohol, reference compound]
[10]; [19]
  BOILING TEMPERATURE: 65.00 °C

## COCOC [metoxymethyl methyl ether, methoxymethyl methyl ether, reference compound]
[10]; [16]
  BOILING TEMPERATURE: 41.96 °C

## Cl/C=C/Cl [tDCE, trans 1,2-dichloroethylene, reference compound]
[10]; [17]
  BOILING TEMPERATURE: 46.70 °C
[10]; [20]
  BOILING TEMPERATURE: 46.79 °C
